Assay results published in patent US20240252432A1, “COMPOSITIONS, METHODS AND SYSTEMS FOR AEROSOL DRUG DELIVERY” (ASTRAZENECA PHARMACEUTICALS LP, priority 2021, published 2024).
Like-named read-outs stand apart in the source and are kept apart here.

How the values were obtained:
[1] = Particle size distribution by laser diffraction; type: physicochemical
From the text: When referred to herein, the term “optical diameter” indicates the size of a particle as measured by the Fraunhofer diffraction mode using a laser diffraction particle size analyzer equipped with a dry powder dispenser (e.g., Sympatec GmbH, Clasthal-Zellerfeld, Germany).
Suspending particles were manufactured by spray drying an emulsion of PFOB (perfluorooctyl bromide) and water stabilized by DSPC (1,2-Distearoyl-sn-Glycero-3-Phosphocholine). […] The particle size distribution of the suspending particles was determined by laser diffraction.
Active agent particles formed of budesonide, 16,17-(butylidenebis(oxy))-11,21-dihydroxy-(11-β,16-α)-pregna-1,4-diene-3,20-dione, were formed by micronizing budesonide using a jet mill. The particle size distribution of the budesonide (BD) was determined by laser diffraction.

[2] = cited from earlier work
[3] = Aerodynamic particle size distribution by NGI of BFF formulations (Example 4); type: physicochemical; details: dual co-suspension of budesonide and formoterol in HFO-1234ze(E); stored valve down, protected, 25° C./60% RH
[4] = Aerodynamic particle size distribution by NGI of BDA formulations (Example 5); type: physicochemical; details: dual co-suspension of budesonide and albuterol in HFO-1234ze(E); stored valve down, protected, 25° C./60% RH

Compound: COc1ccc(CC(C)NCC(O)c2ccc(O)c(NC=O)c2)cc1.O=C(O)/C=C/C(=O)O (racemic) [formoterol fumarate, (±)-2-hydroxy-5-[(1RS)-1-hydroxy-2-[[(1RS)-2-(4-methoxyphenyl)-1-methylethyl]-amino]ethyl]formanilide fumarate]
- optical diameter below which 50% by volume of the particles lie [1]: smaller than 1.6 μm
- optical diameter below which 90% by volume of the particles lie [1]: smaller than 3.9 μm

Compound: FC=CC(F)(F)F [HFO-1234ze, 1,3,3,3-tetrafluoropropene]
- Water Solubility in Propellant ([2]; @20): 225@20 ppm

Compound: CC(F)F [HFC-152a, 1,1-Difluoroethane]
- Water Solubility in Propellant ([2]; @25): 2100@25 ppm

Compound: CCCC1O[C@@H]2C[C@H]3[C@@H]4CCC5=CC(=O)C=C[C@]5(C)[C@H]4[C@@H](O)C[C@]3(C)[C@]2(C(=O)CO)O1 (stereo partly drawn) [budesonide, 16,17-(butylidenebis(oxy))-11,21-dihydroxy-(11-β,16-α)-pregna-1,4-diene-3,20-dione]
- stability of aPSD by NGI [3]: stable for twelve months
- stability of aPSD by NGI [4]: stable for twelve months

Compound: C[N+]1(C)CCC(OC(=O)C(O)(c2ccccc2)C2CCCC2)C1.[Br-] (centres unmarked) [glycopyrrolate, Pyrrolidinium, 3-((cyclopentylhydroxyphenylacetyl)oxy)-1,1-dimethyl-, bromide]
- optical diameter below which 50% by volume of the particles lie [1]: smaller than 2.1 μm
- optical diameter below which 90% by volume of the particles lie [1]: smaller than 5 μm

Compound: albuterol sulfate
- optical diameter below which 50% by volume of the particles lie [1]: smaller than 1.5 μm
- optical diameter below which 90% by volume of the particles lie [1]: smaller than 3.3 μm

Compound: C=C(F)C(F)(F)F [HFO-1234yf, 2,3,3,3-Tetrafluoropropene]
- Water Solubility in Propellant ([2]; @24): 200@24 ppm

Compound: FCC(F)(F)F [HFA-134a, 1,1,1,2-tetrafluoroethane]
- Water Solubility in Propellant ([2]; @25): 1100@25 ppm

Compound: FC(C(F)(F)F)C(F)(F)F [HFA-227ea, 1,1,1,2,3,3,3-Heptafluoropropane]
- Water Solubility in Propellant ([2]; @25): 610@25 ppm

Compound: CCCCCCCCCCCCCCCCCC(=O)OC[C@H](COP(=O)([O-])OCC[N+](C)(C)C)OC(=O)CCCCCCCCCCCCCCCCC [DSPC, 1,2-Distearoyl-sn-glycero-3-phosphocholine]
- stability of aPSD by NGI [3]: stable for twelve months
